This note sets out measurements from patent US20250353853A1, “FLAVIVIRUS INHIBITORS” (IRBM S.P.A., priority 2022, published 2025).

The target in assay [1] is West Nile Virus (WNV) NS2B-NS3 protease (West Nile virus (WNV), UniProt P06935). The experiment in a line: WNV Protease Inhibition Assay. The assay is classed as biochemical. The source says:
WNV Protease Inhibition Assay

The test system of assay [2] is ZIKV replicon in Vero cells. The experiment in a line: ZIKV Replication Inhibition Assay (replicon, NanoLuc). The following applies: 72 h, read-out: Zika Replicon EC50. Background: In antiviral work, replicon cells carry a viral genome segment that copies itself.
[3] abbreviates: 2 nM protease, 10 μM pERTKR-AMC substrate, read-out: WNV Protease IC50.

SMILES strings stand for the structures. Like-named read-outs stand apart in the source and are kept apart here.

Sequence of West Nile Virus (WNV) NS2B-NS3 protease (P06935 1502-1679 limits assumed): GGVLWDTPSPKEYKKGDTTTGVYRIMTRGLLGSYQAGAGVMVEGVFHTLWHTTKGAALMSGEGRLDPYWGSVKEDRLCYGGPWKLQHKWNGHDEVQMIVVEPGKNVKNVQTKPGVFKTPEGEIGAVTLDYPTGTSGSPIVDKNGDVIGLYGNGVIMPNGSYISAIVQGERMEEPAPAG
Sequence of West Nile Virus (WNV) NS2B-NS3 protease (P06935 1371-1501 partner limits assumed): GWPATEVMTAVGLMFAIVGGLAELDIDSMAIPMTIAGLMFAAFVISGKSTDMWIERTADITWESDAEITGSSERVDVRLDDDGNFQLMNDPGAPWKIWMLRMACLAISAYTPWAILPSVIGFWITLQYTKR

For `Cc1noc(C)c1-c1cnc(C[n+]2cc([N-]C(=O)Nc3cccc(C(F)(F)F)c3)on2)nc1` [Example 167, (3-((5-(3,5-dimethylisoxazol-4-yl)pyrimidin-2-yl)methyl)-1,2,3-oxadiazol-3-ium-5-yl)((3-(trifluoromethyl)phenyl)carbamoyl)amide], in assay [1], the IC50 – broadly, the concentration that inhibits the measured activity by half – is 100 to 1000 nM. Moreover, in assay [2] (Zika virus, Vero), the EC50 (in general, the midpoint of the concentration-response curve) is under 100 nM.
Taken in the same sequence, the figures for `Cc1noc(C)c1-c1ccc(C[n+]2cc([N-]C(=O)Nc3cccc(C(F)F)c3)on2)nc1` [Example 168, ((3-(difluoromethyl)phenyl)carbamoyl)(3-((5-(3,5-dimethylisoxazol-4-yl)pyridin-2-yl)methyl)-1,2,3-oxadiazol-3-ium-5-yl)amide] were 100 to 1000 nM and 100 to 1000 nM.
Regarding `O=C([N-]c1c[n+](Cc2ccc(-c3c(F)cncc3F)cn2)no1)Nc1cccc(C(F)(F)F)c1` [Example 170, (3-((3′,5′-difluoro-[3,4′-bipyridin]-6-yl)methyl)-1,2,3-oxadiazol-3-ium-5-yl)((3-(trifluoromethyl)phenyl)carbamoyl)amide], the IC50 in assay [1] is 100 to 1000 nM. The EC50 in assay [2] (Zika virus, Vero) is under 100 nM.
The molecule `O=C([N-]c1c[n+](Cc2ccc(-c3cccnc3Cl)cn2)no1)Nc1cccc(C(F)(F)F)c1` [Example 172, (3-((2′-chloro-[3,3′-bipyridin]-6-yl)methyl)-1,2,3-oxadiazol-3-ium-5-yl)((3-(trifluoromethyl)phenyl)carbamoyl)amide] returned an IC50 in assay [1] of 100 to 1000 nM. Further, the EC50 in assay [2] (Zika virus, Vero) was under 100 nM.
As for `Cc1noc(C)c1-c1ccc(C[n+]2cc([N-]C(=O)Nc3cccc(C(F)(F)F)c3)on2)nn1` [Example 173, (3-((6-(3,5-dimethylisoxazol-4-yl)pyridazin-3-yl)methyl)-1,2,3-oxadiazol-3-ium-5-yl)((3-(trifluoromethyl)phenyl)carbamoyl)amide], the IC50 in assay [1] (setting [3]) is under 100 nM. Besides, the EC50 in assay [2] (Zika virus, Vero) was under 100 nM.
With `Cc1cnn(C)c1-c1ccc(C[n+]2cc([N-]C(=O)Nc3ccnc(C(F)(F)F)c3)on2)nc1` [Example 175, (3-((5-(1,4-dimethyl-1H-pyrazol-5-yl)pyridin-2-yl)methyl)-1,2,3-oxadiazol-3-ium-5-yl)((2-(trifluoromethyl)pyridin-4-yl)carbamoyl)amide], the IC50 in assay [1] (setting [3]) was under 100 nM. In addition, in assay [2] (Zika virus, Vero), the EC50 is under 100 nM.
Regarding `Cc1ncnc(C)c1-c1ccc(C[n+]2cc([N-]C(=O)Nc3ccnc(C(F)(F)F)c3)on2)nc1` [Example 176, (3-((5-(4,6-dimethylpyrimidin-5-yl)pyridin-2-yl)methyl)-1,2,3-oxadiazol-3-ium-5-yl)((2-(trifluoromethyl)pyridin-4-yl)carbamoyl)amide], the IC50 in assay [1] (setting [3]) was under 100 nM. In addition, in assay [2] (Zika virus, Vero), the EC50 lay within 100 to 1000 nM.
For `O=C([N-]c1c[n+](Cc2ccc(-c3cncnc3C(F)(F)F)cn2)no1)Nc1ccnc(C(F)(F)F)c1` [Example 177, ((2-(trifluoromethyl)pyridin-4-yl)carbamoyl)(3-((5-(4-(trifluoromethyl)pyrimidin-5-yl)pyridin-2-yl)methyl)-1,2,3-oxadiazol-3-ium-5-yl)amide] the same measures were under 100 nM and 100 to 1000 nM.
Consider `Cc1cnn(C)c1-c1ccc(C[n+]2cc([N-]C(=O)Nc3cncc(C(F)(F)F)c3)on2)nc1` [Example 178, (3-((5-(1,4-dimethyl-1H-pyrazol-5-yl)pyridin-2-yl)methyl)-1,2,3-oxadiazol-3-ium-5-yl)((5-(trifluoromethyl)pyridin-3-yl)carbamoyl)amide], for which the IC50 in assay [1] lay in the range of 100 to 1000 nM. For the same molecule, the EC50 in assay [2] (Zika virus, Vero) is under 100 nM.
As to `O=C([N-]c1c[n+](Cc2ccc(-c3cncnc3Cl)cn2)no1)Nc1cccc(C(F)(F)F)c1` [Example 179, (3-((5-(4-chloropyrimidin-5-yl)pyridin-2-yl)methyl)-1,2,3-oxadiazol-3-ium-5-yl)((3-(trifluoromethyl)phenyl)carbamoyl)amide], in assay [1] (setting [3]), the IC50 was under 100 nM. Also, the EC50 in assay [2] (Zika virus, Vero) lay within 1000 to 20000 nM.
Taken in the same sequence, the figures for `O=C([N-]c1c[n+](Cc2ccc(-c3c(Cl)ncnc3Cl)cn2)no1)Nc1cccc(C(F)(F)F)c1` [Example 180, (3-((5-(4,6-dichloropyrimidin-5-yl)pyridin-2-yl)methyl)-1,2,3-oxadiazol-3-ium-5-yl)((3-(trifluoromethyl)phenyl)carbamoyl)amide] were under 100 nM and 1000 to 20000 nM.
For `COc1cc(-c2ccc(C[n+]3cc([N-]C(=O)Nc4cccc(C(F)(F)F)c4)on3)nc2)c(OC)nn1` [Example 181, (3-((5-(3,6-dimethoxypyridazin-4-yl)pyridin-2-yl)methyl)-1,2,3-oxadiazol-3-ium-5-yl)((3-(trifluoromethyl)phenyl)carbamoyl)amide], the IC50 in assay [1] fell in the range of 100 to 1000 nM. In addition, in assay [2] (Zika virus, Vero), the EC50 is under 100 nM.
The molecule `Cc1ncnc(C)c1-c1ccc(C[n+]2cc([N-]C(=O)Nc3cccc(C4CC4)c3)on2)nc1` [Example 182, ((3-cyclopropylphenyl)carbamoyl)(3-((5-(4,6-dimethylpyrimidin-5-yl)pyridin-2-yl)methyl)-1,2,3-oxadiazol-3-ium-5-yl)amide] displayed an IC50 in assay [1] of 100 to 1000 nM. In addition, the EC50 in assay [2] (Zika virus, Vero) was 100 to 1000 nM.
On to `Cc1ncnc(C)c1-c1cnc(C[n+]2cc([N-]C(=O)Nc3cccc(C(F)(F)F)c3)on2)nc1` [Example 183, (3-((4′,6′-dimethyl-[5,5′-bipyrimidin]-2-yl)methyl)-1,2,3-oxadiazol-3-ium-5-yl)((3-(trifluoromethyl)phenyl)carbamoyl)amide], for which the IC50 in assay [1] fell in the range of 100 to 1000 nM. For the same molecule, the concentration giving a half-maximal response (EC50) in assay [2] (Zika virus, Vero) was under 100 nM.
`Cc1ncnc(C)c1-c1ccc(C[n+]2cc([N-]C(=O)Nc3cccc(C(F)(F)F)c3)on2)nn1` [Example 184, (3-((6-(4,6-dimethylpyrimidin-5-yl)pyridazin-3-yl)methyl)-1,2,3-oxadiazol-3-ium-5-yl)((3-(trifluoromethyl)phenyl)carbamoyl)amide]: the IC50 in assay [1] is 100 to 1000 nM. In assay [2] (Zika virus, Vero), the EC50 lay in the range of 100 to 1000 nM.
On to `Cc1ncnc(C)c1-c1ccc(C[n+]2cc([N-]C(=O)Nc3ccnc(C(F)(F)F)c3)on2)cc1` [Example 185, (3-(4-(4,6-dimethylpyrimidin-5-yl)benzyl)-1,2,3-oxadiazol-3-ium-5-yl)((2-(trifluoromethyl)pyridin-4-yl)carbamoyl)amide], for which, in assay [1] (setting [3]), the IC50 was under 100 nM. For the same molecule, the EC50 in assay [2] (Zika virus, Vero) is under 100 nM.
As for `Cc1noc(C)c1-c1ccc(C[n+]2cc([N-]C(=O)Nc3ccnc(C(F)(F)F)c3)on2)cc1` [Example 186, (3-(4-(3,5-dimethylisoxazol-4-yl)benzyl)-1,2,3-oxadiazol-3-ium-5-yl)((2-(trifluoromethyl)pyridin-4-yl)carbamoyl)amide], the IC50 in assay [1] (setting [3]) is under 100 nM. Moreover, in assay [2] (Zika virus, Vero), the EC50 was under 100 nM.
In turn, `Cc1ncnc(C)c1-c1ccc(C[n+]2cc([N-]C(=O)Nc3cncc(C(F)(F)F)c3)on2)cc1` [Example 187, (3-(4-(4,6-dimethylpyrimidin-5-yl)benzyl)-1,2,3-oxadiazol-3-ium-5-yl)((5-(trifluoromethyl)pyridin-3-yl)carbamoyl)amide] returned an IC50 in assay [1] of 100 to 1000 nM. In assay [2] (Zika virus, Vero), the EC50 was in the range of 1000 to 20000 nM.
`Cc1ncnc(C)c1-c1ccc([C@@H](C)[n+]2cc(NC(=O)Nc3ccnc(C(F)(F)F)c3)on2)cc1` [Example 188, (R)-(3-(1-(4-(4,6-dimethylpyrimidin-5-yl)phenyl)ethyl)-1,2,3-oxadiazol-3-ium-5-yl)((2-(trifluoromethyl)pyridin-4-yl)carbamoyl)amide] showed an IC50 in assay [1] of under 100 nM. Moreover, the EC50 in assay [2] (Zika virus, Vero) is under 100 nM.
Take `Cc1noc(C)c1-c1ccc([C@@H](C)[n+]2cc([N-]C(=O)Nc3ccnc(C(F)(F)F)c3)on2)cc1` [Example 189, (R)-(3-(1-(4-(3,5-dimethylisoxazol-4-yl)phenyl)ethyl)-1,2,3-oxadiazol-3-ium-5-yl)((2-(trifluoromethyl)pyridin-4-yl)carbamoyl)amide]: in assay [1], the IC50 is 100 to 1000 nM. The EC50 in assay [2] (Zika virus, Vero) fell in the range of 100 to 1000 nM.
In turn, `Cc1ncnc(C)c1-c1ccc([C@H](C)[n+]2cc([N-]C(=O)Nc3ccnc(C(F)(F)F)c3)on2)cc1` [Example 190, (S)-(3-(1-(4-(4,6-dimethylpyrimidin-5-yl)phenyl)ethyl)-1,2,3-oxadiazol-3-ium-5-yl)((2-(trifluoromethyl)pyridin-4-yl)carbamoyl)amide] gave an IC50 in assay [1] of under 100 nM. The EC50 in assay [2] (Zika virus, Vero) was 100 to 1000 nM.
Take `Cc1noc(C)c1-c1ccc([C@H](C)[n+]2cc([N-]C(=O)Nc3ccnc(C(F)(F)F)c3)on2)cc1` [Example 191, (S)-(3-(1-(4-(3,5-dimethylisoxazol-4-yl)phenyl)ethyl)-1,2,3-oxadiazol-3-ium-5-yl)((2-(trifluoromethyl)pyridin-4-yl)carbamoyl)amide]: in assay [1] (read-out: WNV Protease IC50, 2 nM protease, 10 μM pERTKR-AMC substrate), the IC50 fell in the range of 100 to 1000 nM. Moreover, in assay [2] (Vero cell line with stable ZIKV replicon, Nano-Glo), the EC50 was in the range of 100 to 1000 nM.
